Measurements: patent publication US20080234131A1, “Herbicidal Mixtures of Cinmethylin” (priority 2005, published 2008)

System: LOLMG
Assay: Pre-emergence herbicidal trial, tank-mix incorporated into the soil, damage rated 0-100% against untreated control plots
Format: in vivo, lolium multiflorum
Experimental: The mixtures according to the invention are applied pre-emergence as tank-mix which is incorporated into the soil. The herbicidal compounds of component A) and B) are applied in the formulation in which they are present as commercially available product. […] For comparison the synergistic effect is estimated as follows: The value E at which only an additive effect of the individual active ingredients is to be expected is calculated by the method of S. R. […] This is done using the formula […] where • X=Percentage of the herbicidal action of component A) at an application rate of a; • Y=Percentage of the herbicidal action of component B) at an application rate of b; • E=expected herbicidal action of component A)+B) at rates of application a+b (in %). If the value observed exceeds the value E calculated in accordance with Colby's formula, then synergism is present.

Q: How did the “% control of LOLMG” value (Cinmethylin 200 g/ha solo) turn out when `Cc1ccccc1CO[C@@H]1C[C@@]2(C(C)C)CC[C@]1(C)O2` [Cinmethylin, exo(+)-1-methyl-4-(1-methylethyl)-2-[(2-methylphenyl)methoxy]-7-oxabicyclo[2.2.1]heptane] was run?
A: 58%

Q: And the “% control of LOLMG” value (Cinmethylin 400 g/ha solo)?
A: 67%

Q: `CCC(CC)Nc1c([N+](=O)[O-])cc(C)c(C)c1[N+](=O)[O-]` [Pendimethalin] was tested. Which “% control of LOLMG” value (Pendimethalin 600 g/ha solo) did it give?
A: 56%

Q: Which “% control of LOLMG” value (Trifluralin 500 g/ha solo) does the source give for `CCCN(CCC)c1c([N+](=O)[O-])cc(C(F)(F)F)cc1[N+](=O)[O-]` [Trifluralin] here?
A: 59%
